Reference: patent US20240280564A1, “ASSAY FOR EXTRINSIC INHIBITION” (The J. David Gladstone Institutes, a testamentary trust …, priority 2021, published 2024)

What was measured:
[1] = test system: BMP signal transducers SMAD1/5 (phosphorylation); experiment: Immunoblot of phospho-SMAD1/5 in fibrinogen-treated primary rat OPCs; assay type: cell-based
Protocol: (§1) Cells or tissue were lysed in RIPA lysis buffer (Thermo Fisher Scientific) supplemented with protease/phosphatase inhibitor cocktails (Calbiochem) and lysates were cleared by centrifuging at 13,000×g for 15 minutes at 4° C. Equal amounts of protein were loaded in 4%-12% bis-tris gels (Thermo Fisher Scientific) and analyzed by western blotting. Bands were visualized with HRP-conjugated secondary antibodies (Cell Signaling Technology). Densitometry was performed using ImageJ Software (NIH) with values for each band normalized to GAPDH loading controls from the same membrane. Primary antibodies were: Id2 (1:1000, rabbit monoclonal, #M213, CalBioreagents); phospho-Smad1/5 (1:1000, rabbit monoclonal, #9516, Cell Signaling Technology); GAPDH (1:1000, rabbit monoclonal, #2118, Cell Signaling Technology)

[2] = cited from earlier work
BMP target protein ID2 = experiment: Immunoblot of ID2 protein in fibrinogen-treated primary rat OPCs; assay type: cell-based
Protocol: as §1

primary rat OPCs = experiment: OPC-X-screen: high-content imaging of MBP+ OLs and GFAP+ astrocytes in fibrinogen-treated OPCs; assay type: cell-based; details: for Cell-fate switch of OPCs to GFAP+ cells by fibrinogen: fibrinogen-treated primary rat OPCs; for OPC differentiation to mature MBP+ OLs in the presence of fibrinogen: myelin-promoting compound screen, fibrinogen 1.5 mg/ml, benztropine, clemastine, quetiapine, miconazole, (±)U-50488, DMH1 1 μM, clobetasol 5 μM, XAV-939 0.1 μM
NOD-MOG35-55 EAE mice = experiment: Progressive NOD-MOG35-55 EAE, therapeutic treatment; assay type: in vivo, mouse
MOG35-55 EAE mice = experiment: Chronic MOG35-55 EAE in NG2-CreERTM:RosatdTomato/+ mice, therapeutic treatment; assay type: in vivo, mouse
[3] = fibrinogen 2.5 mg/ml, three-fold serial dilutions 5 μM to 2 nM, 3 days
[4] = fibrinogen alone in the OPC-X assay

CC(C)Oc1ccc(-c2cnc3c(-c4ccnc5ccccc45)cnn3c2)cc1 [DMH1]
Fibrinogen-induced phosphorylation of SMAD1/5 [1]: blocked | Water solubility [2]: not water-soluble | Fibrinogen-induced expression of ID2 (BMP target protein ID2): blocked | Cell-fate switch of OPCs to GFAP+ cells by fibrinogen (primary rat OPCs; 3 days): abolished | OPC differentiation to mature MBP+ OLs in the presence of fibrinogen (primary rat OPCs; 3 days): restored OPC differentiation to mature OLs to control levels

c1cc(-c2cnn3cc(-c4ccc(N5CCNCC5)cc4)cnc23)c2cccnc2c1 [LDN-212854]
Water solubility [2]: water-soluble | Group mean of maximum clinical scores (NOD-MOG35-55 EAE mice; 30 days treatment, five-point scale, saline 2.36): 1.75 | Clinical scores (NOD-MOG35-55 EAE mice; treated for 30 days, vs saline): significantly improved | Demyelination in spinal cord (NOD-MOG35-55 EAE mice; vs saline): reduced | Fibrinogen deposition in spinal cord (NOD-MOG35-55 EAE mice; vs saline): reduced | Formation of GFAP+ astrocytes from fibrinogen-treated OPCs, dose response (primary rat OPCs; [3]): blocked | Mature OL (MBP+) differentiation of fibrinogen-treated OPCs, dose response (primary rat OPCs; [3]): restored mature OL differentiation | Clinical scores (MOG35-55 EAE mice; 6 mg/kg twice daily for 14 days starting at peak disease, vs saline): significantly improved | Formation of OPC-derived GFAP+ astrocytes (MOG35-55 EAE mice; 14 day treatment, fate mapping): abolished | Proportion of NG2tdTomato+ OPCs differentiated into GST-pi+ mature OLs (MOG35-55 EAE mice; 14 day treatment, fate mapping, vs controls): increased | ID2 expression in NG2 cells in the EAE white matter (MOG35-55 EAE mice; 14 day treatment, vs saline): decreased | Myelin damage (myelin circularity, in vivo 2P imaging) (MOG35-55 EAE mice; chronic, vs saline): markedly reduced | Perivascular NG2 clusters (in vivo 2P imaging) (MOG35-55 EAE mice; chronic, vs saline): markedly reduced | Demyelination in spinal cord (MOG35-55 EAE mice; vs saline): reduced | Fibrinogen deposition in spinal cord (MOG35-55 EAE mice; vs saline): reduced

Oc1nc(-c2ccc(C(F)(F)F)cc2)nc2c1CSCC2 [XAV-939]
OPC differentiation to mature MBP+ OLs in the presence of fibrinogen (primary rat OPCs; 3 days): did not overcome extrinsic inhibition of OPC differentiation by fibrinogen

CN1[C@@H]2CC[C@H]1C[C@@H](OC(c1ccccc1)c1ccccc1)C2 [benztropine]
OPC differentiation to mature MBP+ OLs in the presence of fibrinogen (primary rat OPCs; 3 days): did not overcome extrinsic inhibition of OPC differentiation by fibrinogen

CN1CCC[C@@H]1CCO[C@](C)(c1ccccc1)c1ccc(Cl)cc1 [clemastine]
Fibrinogen-induced phosphorylation of SMAD1/5 [1]: did not block | Fibrinogen-induced expression of ID2 (BMP target protein ID2): did not block | OPC differentiation to mature OLs in the presence of fibrinogen (clemastine dose-response) (primary rat OPCs; fibrinogen 2.5 mg/ml, differentiation media without T3 or growth factors, 3 days): did not enhance OPC differentiation to mature OLs in the presence of fibrinogen | Cell-fate switch of OPCs to GFAP+ cells by fibrinogen (primary rat OPCs; 3 days): did not inhibit SMAD1/5 phosphorylation, a key pathway downstream of BMP receptor activation, or rescue OPC cell fate switch to astrocytes | OPC differentiation to mature MBP+ OLs in the presence of fibrinogen (primary rat OPCs; 3 days): did not overcome extrinsic inhibition of OPC differentiation by fibrinogen | Number of MBP+ cells in control conditions (primary rat OPCs; no fibrinogen, differentiation media without T3 or growth factors, 3 days): increased

C[C@H]1C[C@H]2[C@@H]3CCC4=CC(=O)C=C[C@]4(C)[C@@]3(F)[C@@H](O)C[C@]2(C)[C@@]1(O)C(=O)CCl [clobetasol]
OPC differentiation to mature MBP+ OLs in the presence of fibrinogen (primary rat OPCs; 3 days): did not overcome extrinsic inhibition of OPC differentiation by fibrinogen

Clc1ccc(COC(Cn2ccnc2)c2ccc(Cl)cc2Cl)c(Cl)c1 (stereo not drawn) [miconazole]
OPC differentiation to mature MBP+ OLs in the presence of fibrinogen (primary rat OPCs; 3 days): did not overcome extrinsic inhibition of OPC differentiation by fibrinogen

OCCOCCN1CCN(C2=Nc3ccccc3Sc3ccccc32)CC1 [quetiapine]
OPC differentiation to mature MBP+ OLs in the presence of fibrinogen (primary rat OPCs; 3 days): did not overcome extrinsic inhibition of OPC differentiation by fibrinogen

fibrinogen
Decrease of MBP+ mature OLs as compared to controls (primary rat OPCs; [4]): ~60% | Increase of GFAP+ astrocyte-like cells as compared to controls (primary rat OPCs; [4]): ~60%
